These are literature values, as cited in patent publication US8128958B2, “Sustained release pharmaceutical composition” (Astellas Pharma Inc., priority 2003, dated 2012).

Assay in data set [1]: not given
The source holds these as a separate data set.

Each structure is given as a SMILES string. Where a name gives a salt, the structure may show the parent alone.

With `CCOc1ccccc1OCCN[C@H](C)Cc1ccc(OC)c(S(N)(=O)=O)c1` [tamsulosin hydrochloride, (R)(−)-5-[2-[[2-(o-ethoxyphenoxy)ethyl]-amino]propyl]-2-methoxybenzenesulfonamide], the “adverse reactions (including abnormal clinical data) presumably related to the agent” value (104 cases among 4724 cases, research in use upon approval and post marketing surveillance in Japan) is on record as 2.2%. For the same compound, the “frequency of hypotension, postural hypotension, blood pressure, tachycardia and palpitation” value (package insert, circulatory area) is reported as “less than 0.1%”. The “frequency of orthostatic syncope, headache and sleepiness” value (package insert, psychoneural area) is “less than 0.1%”. In data set [1] (0.1 to 0.6 mg orally, healthy adult volunteers), the “Cmax and AUC versus dose” value is given as “increased almost in proportion to the dose administered”. Moreover, in data set [1] (repeatedly administered per os for seven days), the “day on which plasma concentration profiles reached the steady state” value was 4 days.
